What was measured:
Settings in all cases: 72 h
Calu-3 [1] = test: drug sensitivity score (DSS) for viability; higher = more toxic; extreme values may be limits of the assay
Caco-2 [2] = test: as above
HepG2 [3] = test: as above
U2OS [4] = test: as above
Vero E6 [5] = test: as above
Calu-3 [6] = test: cell viability relative to DMSO; higher = less toxic
Caco-2 [7] = test: as above
HepG2 [8] = test: as above
U2OS [9] = test: as above
Vero E6 [10] = test: as above
Calu-3 [11] = test: relative viability EC50 (midpoint between 100% and the lowest measured viability); higher = less toxic
Caco-2 [12] = test: as above
HepG2 [13] = test: as above
U2OS [14] = test: as above
Vero E6 [15] = test: as above

Structure (SMILES)	drug sensitivity score (Calu-3 [1])	drug sensitivity score (Caco-2 [2])	drug sensitivity score (HepG2 [3])	drug sensitivity score (U2OS [4])	drug sensitivity score (Vero E6 [5])	cell viability (Calu-3 [6]; 1 nM)	cell viability (Calu-3 [6]; 10 nM)	cell viability (Calu-3 [6]; 100 nM)	cell viability (Calu-3 [6]; 1000 nM)	cell viability (Calu-3 [6]; 10000 nM)	cell viability (Caco-2 [7]; 1 nM)	cell viability (Caco-2 [7]; 10 nM)	cell viability (Caco-2 [7]; 100 nM)	cell viability (Caco-2 [7]; 1000 nM)	cell viability (Caco-2 [7]; 10000 nM)	cell viability (HepG2 [8]; 1 nM)	cell viability (HepG2 [8]; 10 nM)	cell viability (HepG2 [8]; 100 nM)	cell viability (HepG2 [8]; 1000 nM)	cell viability (HepG2 [8]; 10000 nM)	cell viability (U2OS [9]; 1 nM)	cell viability (U2OS [9]; 10 nM)	cell viability (U2OS [9]; 100 nM)	cell viability (U2OS [9]; 1000 nM)	cell viability (U2OS [9]; 10000 nM)	cell viability (Vero E6 [10]; 1 nM)	cell viability (Vero E6 [10]; 10 nM)	cell viability (Vero E6 [10]; 100 nM)	cell viability (Vero E6 [10]; 1000 nM)	cell viability (Vero E6 [10]; 10000 nM)	relative viability EC50 (Calu-3 [11])	relative viability EC50 (Caco-2 [12])	relative viability EC50 (HepG2 [13])	relative viability EC50 (U2OS [14])	relative viability EC50 (Vero E6 [15])
CC(C)[C@@H]1C(=O)N(S(C)(=O)=O)[C@@H]2CCN(C(=O)/C=C/CN3CCCCC3)[C@H]21	0	0	0.1	0	0	95.9%	95.4%	102%	103%	100%	110%	94.3%	94.4%	97.6%	94.4%	92.2%	92.6%	104%	104%	85.3%	101%	98.8%	103%	99.1%	101%	97.2%	102%	93.4%	98.6%	91.4%	> 10 µM	> 10 µM	> 10 µM	> 10 µM	> 10 µM
CC1(C)C(=O)N(c2ccc(C#N)c(C(F)(F)F)c2)C(=O)N1CCCCO	0	0.4	0	0	0	104%	114%	96%	97.6%	91.9%	104%	94.8%	90.6%	90.7%	89.4%	98.8%	93.9%	103%	91.1%	91.6%	99.9%	102%	96.5%	97.6%	98.3%	95.6%	103%	100%	103%	99.2%	> 10 µM	> 10 µM	> 10 µM	> 10 µM	> 10 µM
CC1(C)CCC(C)(C)c2cc(C3(c4ccc5cc(C(=O)O)ccc5c4)SCCS3)ccc21	0	0	0	0	0	104%	106%	89.4%	113%	98.8%	106%	104%	93.9%	94.7%	94.6%	101%	85.2%	96.3%	106%	102%	97.9%	104%	94.4%	93.5%	98.6%	95.8%	98.7%	96.6%	98%	100%	> 10 µM	> 10 µM	> 10 µM	> 10 µM	> 10 µM
CC1(C)Oc2ccc(C#N)cc2[C@H](N(Cc2ncc[nH]2)c2ccc(Cl)cc2)[C@H]1O	0	0	0	0	0	103%	104%	105%	102%	99.2%	106%	101%	98%	103%	89.4%	107%	109%	98%	103%	114%	101%	103%	103%	103%	96.8%	93.8%	93%	95.2%	97.2%	102%	> 10 µM	> 10 µM	> 10 µM	> 10 µM	> 10 µM
CCCn1c(=O)c(C)cn2nc(N)nc12	0	0	0	0	0	105%	102%	102%	111%	99%	91.7%	91.5%	102%	99.5%	112%	96.9%	95%	93.8%	98.3%	107%	100%	97.3%	104%	98.9%	101%	90.1%	103%	96%	97.1%	97.7%	> 10 µM	> 10 µM	> 10 µM	> 10 µM	> 10 µM
CCN(CC)CCOc1ccc(Nc2ncc3cc(-c4c(Cl)cccc4Cl)c(=O)n(C)c3n2)cc1	12.5	13.5	18.4	17.5	15.3	98.8%	99.5%	80.3%	49%	2.3%	102%	102%	80.7%	41.7%	5.4%	111%	97.9%	82.2%	11.3%	0.1%	99.1%	104%	90.8%	10.4%	-0.1%	95%	95.3%	88.9%	26.6%	-0.1%	0.712 µM	0.532 µM	0.266 µM	0.329 µM	0.465 µM
CN(C)Cc1cccc(N/C(=C2\C(=O)Nc3cc(C(N)=O)ccc32)c2ccccc2)c1	0	0	0	0	0	103%	92.7%	96.3%	95.6%	96%	102%	99.7%	100%	88.3%	107%	106%	105%	89.4%	112%	112%	96.6%	94.8%	99%	93.5%	101%	98.3%	102%	95.6%	96.2%	102%	> 10 µM	> 10 µM	> 10 µM	> 10 µM	> 10 µM
COC1(C[S@@+]([O-])c2ccccc2)CCN(CCc2c[nH]c3ccc(F)cc23)CC1	0	0	0	0	0	100%	94.6%	99%	101%	100%	93.6%	99.1%	87.1%	102%	90.3%	95.9%	88.4%	86.6%	96.6%	84.1%	96.2%	95.9%	100%	96.5%	99.9%	103%	101%	92.5%	102%	93.8%	> 10 µM	> 10 µM	> 10 µM	> 10 µM	> 10 µM
COc1ccc2cc(OCC3(C(=O)O)CN(C(=O)c4ccc(F)cc4)C3)ccc2c1	0	0	0	0	0	106%	95.4%	104%	110%	102%	93.5%	102%	94.8%	93.8%	99%	106%	88.7%	100%	93%	96.9%	94.3%	108%	96.1%	97.9%	95.8%	99.2%	96.9%	99.5%	96.2%	95%	> 10 µM	> 10 µM	> 10 µM	> 10 µM	> 10 µM
NS(=O)(=O)NCCNc1nonc1/C(=N/O)Nc1ccc(F)c(Br)c1	0	0	0	0	0	100%	96.2%	93.7%	95%	95.4%	89.9%	100%	98%	102%	96.4%	100%	96%	103%	94.8%	102%	93.6%	102%	96.2%	102%	95%	100%	98.9%	98.2%	94.5%	107%	> 10 µM	> 10 µM	> 10 µM	> 10 µM	> 10 µM
N[C@@H](CCNCc1ccc(Cl)cc1)C(=O)N1CCCCC1	0	0	0	0	0	108%	98.1%	101%	101%	93.2%	95.9%	94.3%	101%	96.6%	98.4%	101%	109%	102%	112%	95.9%	98.9%	99%	104%	99.5%	101%	94.1%	99.3%	91%	100%	103%	> 10 µM	> 10 µM	> 10 µM	> 10 µM	> 10 µM
O=C(N[C@H]1CN2CCC1CC2)c1ccc(Cl)cc1	0	0	0	0	0	99.6%	88.7%	99.6%	99.8%	95.6%	98.5%	97.8%	103%	98.3%	92.6%	97.2%	92.2%	93.7%	102%	94.3%	102%	97.4%	99.9%	95.7%	101%	96.7%	94.7%	95.4%	92.7%	92.5%	> 10 µM	> 10 µM	> 10 µM	> 10 µM	> 10 µM
O=C(Nc1cnccc1Cl)N1CCN(Cc2ccc3c(c2)OC(F)(F)O3)CC1	0	1	4.7	0	0	92.4%	100%	95.2%	99%	92.8%	97.7%	101%	94%	90.3%	81%	95.6%	100%	100%	91.6%	39.3%	99.8%	97.5%	99.1%	98.8%	94%	108%	103%	103%	100%	92.4%	> 10 µM	> 10 µM	2.06 µM	> 10 µM	> 10 µM
O=C(O)c1ccc(-c2c[nH]c3ncc(-c4ccccc4)cc23)cc1C1CCCC1	0	0	1.1	0	0	98.8%	92.9%	97.6%	107%	107%	92.8%	107%	101%	105%	93.5%	103%	100%	107%	89.6%	84.2%	96.4%	94.9%	90.4%	97.3%	85.8%	109%	106%	104%	97%	101%	> 10 µM	> 10 µM	> 10 µM	> 10 µM	> 10 µM
